Source: patent publication US10669272B2, “Substituted naphthyridinone compounds useful as T cell activators” (BRISTOL-MYERS SQUIBB COMPANY, priority 2018, dated 2020)
Where two headings read alike, the source gives them in different places.

Tests used:
[1] = tested on: Human venous whole blood; assay: Human whole blood IFN-γ assay; type: cell-based; conditions: human whole blood, read-out: INFg Whole Blood Normalized Agonist EC50;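 further: blood from healthy donors exposed to compound for 1 h before stimulation with anti-CD3 and anti-CD28 at 1 µg/mL each, IFN-γ quantified in supernatant by AlphaLISA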
Procedure: Human Whole Blood IFN-γ Assay
Human venous whole blood (22.5 μL per well), obtained from healthy donors, was pre-treated with compounds for one hour at 37° C. in a humidified 95% air/5% CO2 incubator. The blood was stimulated with 2.5 μL anti-human CD3 and anti-CD28 mAb at a final concentration of 1 μg/mL each for 24 hours at 37° C. IFN-γ in the supernatants was measured using AlphLISA kit (Cat # AL217).

[2] = target: T1, human DGKα (Homo sapiens, UniProt P23743); assay: DGKα LIPGLO assay (extruded liposome substrate), in vitro DGK inhibition; type: biochemical; conditions: read-out: DGKa LIPGLO IC50
T1 construct: TVMV protease cleavage site (C); Hexa-His (C); made in house; host or cells: Sf9 insect cells (baculovirus, Bac-to-Bac)

[3] = target: T2, human DGKζ (Homo sapiens, UniProt Q13574); assay: DGKζ LIPGLO assay (extruded liposome substrate), in vitro DGK inhibition; type: biochemical; conditions: read-out: DGKz LIPGLO IC50
T2 construct: TVMV protease cleavage site (C); Hexa-His (C); made in house; host or cells: Sf9 insect cells (baculovirus, Bac-to-Bac)

[4] = normalized to 3 μM reference compound with anti-CD3 plus anti-CD28 as 100% activation
[5] = anti-CD3 plus anti-CD28, 24 hours, 3 μM reference compound = 100% activation
[6] = Homo sapiens, 24 h, anti-CD3 plus anti-CD28, 24 hours, 3 μM reference compound = 100% activation

T2 sequence (Q13574 with tags, fused parts or gaps isoform Q13574-4): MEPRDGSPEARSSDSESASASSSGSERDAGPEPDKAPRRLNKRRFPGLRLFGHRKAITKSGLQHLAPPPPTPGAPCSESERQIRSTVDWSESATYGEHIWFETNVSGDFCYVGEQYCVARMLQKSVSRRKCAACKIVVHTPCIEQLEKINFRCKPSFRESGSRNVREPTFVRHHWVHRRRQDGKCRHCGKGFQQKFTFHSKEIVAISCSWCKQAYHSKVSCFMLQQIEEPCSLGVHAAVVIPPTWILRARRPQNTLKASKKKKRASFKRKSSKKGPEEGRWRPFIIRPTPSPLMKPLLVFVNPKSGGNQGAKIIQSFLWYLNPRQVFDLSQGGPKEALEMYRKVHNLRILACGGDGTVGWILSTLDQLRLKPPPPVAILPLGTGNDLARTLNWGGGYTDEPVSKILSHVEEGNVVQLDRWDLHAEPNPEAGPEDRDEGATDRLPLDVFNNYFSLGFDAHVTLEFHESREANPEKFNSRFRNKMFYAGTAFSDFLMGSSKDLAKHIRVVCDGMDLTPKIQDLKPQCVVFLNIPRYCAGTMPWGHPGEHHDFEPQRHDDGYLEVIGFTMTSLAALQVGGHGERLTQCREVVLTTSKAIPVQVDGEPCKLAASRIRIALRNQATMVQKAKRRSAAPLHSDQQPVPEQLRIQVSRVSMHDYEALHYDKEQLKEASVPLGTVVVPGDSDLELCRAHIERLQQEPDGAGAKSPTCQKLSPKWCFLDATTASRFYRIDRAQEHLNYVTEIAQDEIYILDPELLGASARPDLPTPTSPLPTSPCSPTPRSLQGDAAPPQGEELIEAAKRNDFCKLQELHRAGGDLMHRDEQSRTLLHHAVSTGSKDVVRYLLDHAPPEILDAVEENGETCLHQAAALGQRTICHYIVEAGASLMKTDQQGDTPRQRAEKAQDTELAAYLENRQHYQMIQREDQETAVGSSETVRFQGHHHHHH
T1 sequence (P23743 with tags, fused parts or gaps): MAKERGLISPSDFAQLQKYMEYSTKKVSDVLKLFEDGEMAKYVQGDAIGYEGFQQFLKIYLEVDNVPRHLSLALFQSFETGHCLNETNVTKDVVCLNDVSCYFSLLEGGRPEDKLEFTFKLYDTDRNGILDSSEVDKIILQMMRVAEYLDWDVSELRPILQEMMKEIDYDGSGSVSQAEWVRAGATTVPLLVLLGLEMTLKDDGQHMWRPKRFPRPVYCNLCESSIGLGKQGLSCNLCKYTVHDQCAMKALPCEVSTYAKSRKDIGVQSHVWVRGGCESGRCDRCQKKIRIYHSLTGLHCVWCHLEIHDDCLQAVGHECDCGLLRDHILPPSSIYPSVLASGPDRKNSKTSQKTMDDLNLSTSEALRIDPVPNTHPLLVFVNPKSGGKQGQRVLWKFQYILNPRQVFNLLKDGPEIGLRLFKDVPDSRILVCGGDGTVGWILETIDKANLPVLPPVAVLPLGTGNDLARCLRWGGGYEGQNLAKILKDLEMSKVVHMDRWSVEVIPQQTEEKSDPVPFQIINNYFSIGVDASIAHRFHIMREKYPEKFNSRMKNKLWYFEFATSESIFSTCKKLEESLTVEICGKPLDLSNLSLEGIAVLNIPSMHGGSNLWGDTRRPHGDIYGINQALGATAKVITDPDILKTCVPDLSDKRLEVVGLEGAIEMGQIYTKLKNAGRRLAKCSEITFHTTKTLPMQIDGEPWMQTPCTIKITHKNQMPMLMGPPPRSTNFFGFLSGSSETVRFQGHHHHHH

SMILES	EC50 [1, 4] [nM]	IC50 ([2]; liposome (LIPGLO) assay) [nM]	IC50 ([3]; liposome (LIPGLO) assay) [nM]	EC50 [1, 5] [nM]	IC50 ([2]; DGKα liposome (LIPGLO) assay) [nM]	IC50 ([3]; DGKζ liposome (LIPGLO) assay) [nM]	EC50 [1, 6] [nM]
C[C@@H]1CN(c2cc(=O)n(C)c3ccc(C#N)nc23)[C@@H](C)CN1C(c1ccc(F)cc1)c1ccns1 (stereo partly drawn) [Example 719]	500	400	380	–	–	–	–
C[C@@H]1CN(c2cc(=O)n(C)c3ccc(C#N)nc23)[C@@H](C)CN1C(c1ccc(F)cc1)c1ccns1 (stereo partly drawn) [Example 720]	1900	1100	940	–	–	–	–
C[C@@H]1CN(c2cc(=O)n(C)c3ccc(C#N)nc23)[C@@H](C)CN1C(c1ccc(F)cc1)c1cscn1 (stereo partly drawn) [Example 721]	–	–	–	3500	72	1100	–
C[C@@H]1CN(c2cc(=O)n(C)c3ccc(C#N)nc23)[C@@H](C)CN1C(c1ccc(F)cc1)c1cscn1 (stereo partly drawn) [Example 722]	–	–	–	840	120	560	–
C[C@@H]1CN(c2cc(=O)n(C)c3ccc(C#N)nc23)[C@@H](C)CN1C(c1ccc(F)cc1)c1nc(C(F)F)no1 (stereo partly drawn) [Example 743]	–	–	–	–	120	1600	420
C[C@@H]1CN(c2cc(=O)n(C)c3ccc(C#N)nc23)[C@@H](C)CN1C(c1ccc(F)cc1)c1nc(C(F)F)no1 (stereo partly drawn) [Example 744]	–	–	–	310	49	620	–
Cc1noc(C(c2ccc(F)cc2)N2C[C@H](C)N(c3cc(=O)n(C)c4ccc(C#N)nc34)C[C@H]2C)n1 (stereo partly drawn) [Example 745]	–	–	–	–	380	470	1100
C[C@@H]1CN(c2cc(=O)n(C)c3ccc(C#N)nc23)[C@@H](C)CN1C(c1ccc(F)cc1)c1nc(N2CCOCC2)no1 (stereo partly drawn) [Example 749]	–	–	–	1200	670	580	–
C[C@@H]1CN(c2cc(=O)n(C)c3ccc(C#N)nc23)[C@@H](C)CN1C(c1ccc(F)cc1)c1nc(N2CCOCC2)no1 (stereo partly drawn) [Example 750]	–	–	–	150	480	240	–
C[C@@H]1CN(c2cc(=O)n(C)c3ccc(C#N)nc23)[C@@H](C)CN1C(c1ccc(F)cc1)c1ncno1 (stereo partly drawn) [Example 755]	–	–	–	–	2600	61000	18000
C[C@@H]1CN(c2cc(=O)n(C)c3ccc(C#N)nc23)[C@@H](C)CN1C(c1ccc(Br)cc1)c1nc(C2CC2)no1 (stereo partly drawn) [Example 760]	–	–	–	48	70	22	–
C[C@@H]1CN(c2cc(=O)n(C)c3ccc(C#N)nc23)[C@@H](C)CN1C(c1ccc(Br)cc1)c1nc(C2CC2)no1 (stereo partly drawn) [Example 761]	–	–	–	170	48	41	–
C[C@@H]1CN(c2c(C#N)c(=O)n(C)c3ccc(C#N)nc23)[C@@H](C)CN1C(c1ccc(Cl)cc1)c1ccc(Cl)cc1 [Example 805]	–	–	–	–	11000	1700	9800
C[C@@H]1CN(c2c(C#N)c(=O)n(C)c3ccc(C#N)nc23)[C@@H](C)CN1C(c1ccccc1)c1ccc(F)cc1 (stereo partly drawn) [Example 807]	–	–	–	–	5000	2600	2500
C[C@@H]1CN(c2c(C#N)c(=O)n(C)c3ccc(C#N)nc23)[C@@H](C)CN1C(c1ccccc1)c1ccc(F)cc1 (stereo partly drawn) [Example 808]	–	–	–	1300	4200	1600	–
Cc1cccc(C(c2ccc(F)cc2)N2C[C@H](C)N(c3c(C#N)c(=O)n(C)c4ccc(C#N)nc34)C[C@H]2C)n1 (stereo partly drawn) [Example 815]	–	–	–	–	7700	4100	1900
Cc1cccc(C(c2ccc(F)cc2)N2C[C@H](C)N(c3c(C#N)c(=O)n(C)c4ccc(C#N)nc34)C[C@H]2C)n1 (stereo partly drawn) [Example 816]	–	–	–	1100	2600	3100	–
Cc1ccc(C(c2ccc(F)cc2)N2C[C@H](C)N(c3c(C#N)c(=O)n(C)c4ccc(C#N)nc34)C[C@H]2C)cc1 (stereo partly drawn) [Example 817]	–	–	–	1100	22000	8600	–
Cc1ccc(C(c2ccc(F)cc2)N2C[C@H](C)N(c3c(C#N)c(=O)n(C)c4ccc(C#N)nc34)C[C@H]2C)cc1 (stereo partly drawn) [Example 818]	–	–	–	4200	58000	7300	–
C[C@@H]1CN(c2c(C#N)c(=O)n(C)c3ccc(C#N)nc23)[C@@H](C)CN1C(c1ccc(F)cc1)c1ccc(F)cn1 (stereo partly drawn) [Example 827]	–	–	–	1300	4400	10000	–
C[C@@H]1CN(c2c(C#N)c(=O)n(C)c3ccc(C#N)nc23)[C@@H](C)CN1C(c1ccc(F)cc1)c1ccc(F)cn1 (stereo partly drawn) [Example 828]	–	–	–	2700	4200	16000	–
Cc1ccc(C(c2ccc(F)cc2Cl)N2C[C@H](C)N(c3c(C#N)c(=O)n(C)c4ccc(C#N)nc34)C[C@H]2C)nc1 (stereo partly drawn) [Example 831]	–	–	–	–	42000	6500	2500
Cc1ccc(C(c2ccc(F)cc2Cl)N2C[C@H](C)N(c3c(C#N)c(=O)n(C)c4ccc(C#N)nc34)C[C@H]2C)nc1 (stereo partly drawn) [Example 832]	–	–	–	1800	19000	2700	–
